From ChEMBL document CHEMBL5649166, “RIP3 induces apoptosis independent of pronecrotic kinase activity” (Mol Cell, 2014) come the findings set out here.

SMILES strings stand for the structures. Activity calls are given as the source filed them. The rule behind the calls is not given here.

Test [1] addresses Fibroblast growth factor receptor 3 (Homo sapiens) (UniProt P22607). The experiment in a line: Inhibition of human FGFR3 using poly[Glu:Tyr] (4:1) as substrate at 1 uM in presence of 32P-ATP by Hotspot assay relative to control; values are per cent of control.
In test [2] the target is Tyrosine-protein kinase ABL2 (Homo sapiens) (UniProt P42684). Kind of test: Inhibition of human ABL2/ARG using EAIYAAPFAKKK as substrate at 1 uM in presence of 32P-ATP by Hotspot assay relative to control; values are per cent of control.
Chain of Tyrosine-protein kinase ABL2 (Homo sapiens) (P42684 whole entry): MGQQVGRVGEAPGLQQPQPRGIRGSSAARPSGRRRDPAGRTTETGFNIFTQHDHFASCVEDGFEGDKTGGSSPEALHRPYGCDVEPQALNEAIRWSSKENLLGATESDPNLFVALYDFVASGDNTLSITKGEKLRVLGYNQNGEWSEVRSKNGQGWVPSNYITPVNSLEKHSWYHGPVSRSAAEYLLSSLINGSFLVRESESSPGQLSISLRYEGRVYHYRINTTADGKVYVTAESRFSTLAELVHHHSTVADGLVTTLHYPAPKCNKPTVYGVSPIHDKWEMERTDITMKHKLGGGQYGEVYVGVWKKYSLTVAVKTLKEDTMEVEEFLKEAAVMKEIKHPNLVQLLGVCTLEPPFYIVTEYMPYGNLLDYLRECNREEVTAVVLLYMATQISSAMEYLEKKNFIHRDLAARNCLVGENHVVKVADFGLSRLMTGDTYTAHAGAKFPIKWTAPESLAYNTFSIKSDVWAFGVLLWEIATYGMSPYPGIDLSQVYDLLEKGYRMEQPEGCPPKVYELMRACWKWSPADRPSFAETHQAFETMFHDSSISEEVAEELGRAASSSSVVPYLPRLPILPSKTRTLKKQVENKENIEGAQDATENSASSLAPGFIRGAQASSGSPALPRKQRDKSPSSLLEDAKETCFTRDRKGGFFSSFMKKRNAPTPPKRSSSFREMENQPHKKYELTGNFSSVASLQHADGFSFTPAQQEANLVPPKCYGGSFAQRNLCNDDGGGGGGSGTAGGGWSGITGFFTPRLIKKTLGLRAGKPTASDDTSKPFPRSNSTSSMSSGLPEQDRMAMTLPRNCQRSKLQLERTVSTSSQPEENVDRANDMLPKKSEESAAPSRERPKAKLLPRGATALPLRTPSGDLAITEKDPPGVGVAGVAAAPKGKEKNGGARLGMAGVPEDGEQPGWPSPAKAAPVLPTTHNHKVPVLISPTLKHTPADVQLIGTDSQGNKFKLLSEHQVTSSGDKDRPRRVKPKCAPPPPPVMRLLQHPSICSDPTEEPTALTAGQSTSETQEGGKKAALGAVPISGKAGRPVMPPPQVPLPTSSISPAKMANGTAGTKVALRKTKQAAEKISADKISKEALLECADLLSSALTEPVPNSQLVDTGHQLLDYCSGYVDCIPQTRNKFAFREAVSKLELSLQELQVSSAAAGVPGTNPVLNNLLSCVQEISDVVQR
The target of test [3] is CDK4/Cyclin D3 (Homo sapiens) (UniProt P11802+P30281). Kind of test: Inhibition of human CDK4/cyclin D3 using RB-CTF as substrate at 1 uM in presence of 32P-ATP by Hotspot assay relative to control; values are per cent of control.
Test [4] concerns NIH3T3. Kind of test: Inhibition of TNF-alpha induced necroptosis in mouse 3T3SA cells assessed as increase in cell viability at 0.04 to 1 uM incubated for 18 hrs in presence of zVAD by Cell Titer-Glo luminescent cell viability assay. In kind it is functional, cell-based. The settings on record: dose 0.04-1 µM.
Test [5] concerns the target Tyrosine-protein kinase Lyn (Homo sapiens) (UniProt P07948). The experiment in a line: Inhibition of human LYN B using poly[Glu:Tyr] (4:1) as substrate at 1 uM in presence of 32P-ATP by Hotspot assay relative to control; values are per cent of control.
Test [6] addresses Cyclin-dependent kinase 1/cyclin B1 (Homo sapiens) (UniProt P06493+P14635). Kind of test: Inhibition of human CDK1/cyclin B using RB Protein as substrate at 1 uM in presence of 32P-ATP by Hotspot assay relative to control; values are per cent of control.
Test [7] addresses Tyrosine-protein kinase HCK (Homo sapiens) (UniProt P08631). Kind of test: Inhibition of human HCK using KVEKIGEGTYGVVYK as substrate at 1 uM in presence of 32P-ATP by Hotspot assay relative to control; values are per cent of control.
Test [8] deals with Serine/threonine-protein kinase 26 (Homo sapiens) (UniProt Q9P289). Kind of test: Inhibition of human MST4 using myelin basic protein as substrate at 1 uM in presence of 32P-ATP by Hotspot assay relative to control; values are per cent of control.
The target of test [9] is Serine/threonine-protein kinase 33 (Homo sapiens) (UniProt Q9BYT3). Kind of test: Inhibition of human STK33 using myelin basic protein as substrate at 1 uM in presence of 32P-ATP by Hotspot assay relative to control; values are per cent of control.
Chain of Serine/threonine-protein kinase 33 (Homo sapiens) (Q9BYT3 whole entry, looked up): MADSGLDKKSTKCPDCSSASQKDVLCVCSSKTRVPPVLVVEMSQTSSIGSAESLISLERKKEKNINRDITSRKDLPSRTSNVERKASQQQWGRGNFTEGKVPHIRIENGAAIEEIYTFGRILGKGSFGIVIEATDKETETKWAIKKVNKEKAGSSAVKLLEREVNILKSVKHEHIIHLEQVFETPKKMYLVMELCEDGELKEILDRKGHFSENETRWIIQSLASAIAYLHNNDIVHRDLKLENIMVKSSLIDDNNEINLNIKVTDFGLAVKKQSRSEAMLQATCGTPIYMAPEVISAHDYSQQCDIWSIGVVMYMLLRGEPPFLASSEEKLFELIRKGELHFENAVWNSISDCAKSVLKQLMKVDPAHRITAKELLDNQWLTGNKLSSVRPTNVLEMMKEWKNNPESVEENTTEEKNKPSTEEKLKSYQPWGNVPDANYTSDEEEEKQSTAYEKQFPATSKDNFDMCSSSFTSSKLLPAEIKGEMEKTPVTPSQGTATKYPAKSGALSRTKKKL
Test [10] has as its target Tyrosine-protein kinase Srms (Homo sapiens) (UniProt Q9H3Y6). Kind of test: Inhibition of human SRMS using poly[Glu:Tyr] (4:1) as substrate at 1 uM in presence of 32P-ATP by Hotspot assay relative to control; values are per cent of control.
The target in test [11] is Serine/threonine-protein kinase Chk2 (Homo sapiens) (UniProt O96017). Kind of test: Inhibition of human CHK2 using KKKVSRSGLYRSPSMPENLNRPR as substrate at 1 uM in presence of 32P-ATP by Hotspot assay relative to control; values are per cent of control.
Chain of Serine/threonine-protein kinase Chk2 (Homo sapiens) (O96017 whole entry): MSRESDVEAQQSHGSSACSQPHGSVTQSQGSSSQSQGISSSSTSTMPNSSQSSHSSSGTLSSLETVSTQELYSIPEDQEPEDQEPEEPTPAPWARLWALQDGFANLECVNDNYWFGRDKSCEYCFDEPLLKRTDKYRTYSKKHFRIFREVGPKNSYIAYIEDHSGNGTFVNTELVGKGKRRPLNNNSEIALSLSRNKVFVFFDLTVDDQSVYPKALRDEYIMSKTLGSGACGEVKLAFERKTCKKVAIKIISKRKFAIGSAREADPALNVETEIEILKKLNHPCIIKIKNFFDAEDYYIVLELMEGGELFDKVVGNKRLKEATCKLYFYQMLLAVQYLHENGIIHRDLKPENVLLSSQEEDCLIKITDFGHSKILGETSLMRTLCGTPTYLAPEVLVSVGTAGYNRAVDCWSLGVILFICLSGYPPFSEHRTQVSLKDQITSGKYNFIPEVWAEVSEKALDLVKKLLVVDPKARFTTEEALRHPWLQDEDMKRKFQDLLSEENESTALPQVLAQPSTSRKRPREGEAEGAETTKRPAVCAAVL
Test [12] concerns the target Proto-oncogene tyrosine-protein kinase ROS (Homo sapiens) (UniProt P08922). The experiment in a line: Inhibition of human ROS/ROS1 using KKKSPGEYVNIEFG as substrate at 1 uM in presence of 32P-ATP by Hotspot assay relative to control; values are per cent of control.
The target of test [13] is T1, Serine/threonine-protein kinase TAO1 (Homo sapiens) (UniProt Q7L7X3).
T1 sequence (whole entry): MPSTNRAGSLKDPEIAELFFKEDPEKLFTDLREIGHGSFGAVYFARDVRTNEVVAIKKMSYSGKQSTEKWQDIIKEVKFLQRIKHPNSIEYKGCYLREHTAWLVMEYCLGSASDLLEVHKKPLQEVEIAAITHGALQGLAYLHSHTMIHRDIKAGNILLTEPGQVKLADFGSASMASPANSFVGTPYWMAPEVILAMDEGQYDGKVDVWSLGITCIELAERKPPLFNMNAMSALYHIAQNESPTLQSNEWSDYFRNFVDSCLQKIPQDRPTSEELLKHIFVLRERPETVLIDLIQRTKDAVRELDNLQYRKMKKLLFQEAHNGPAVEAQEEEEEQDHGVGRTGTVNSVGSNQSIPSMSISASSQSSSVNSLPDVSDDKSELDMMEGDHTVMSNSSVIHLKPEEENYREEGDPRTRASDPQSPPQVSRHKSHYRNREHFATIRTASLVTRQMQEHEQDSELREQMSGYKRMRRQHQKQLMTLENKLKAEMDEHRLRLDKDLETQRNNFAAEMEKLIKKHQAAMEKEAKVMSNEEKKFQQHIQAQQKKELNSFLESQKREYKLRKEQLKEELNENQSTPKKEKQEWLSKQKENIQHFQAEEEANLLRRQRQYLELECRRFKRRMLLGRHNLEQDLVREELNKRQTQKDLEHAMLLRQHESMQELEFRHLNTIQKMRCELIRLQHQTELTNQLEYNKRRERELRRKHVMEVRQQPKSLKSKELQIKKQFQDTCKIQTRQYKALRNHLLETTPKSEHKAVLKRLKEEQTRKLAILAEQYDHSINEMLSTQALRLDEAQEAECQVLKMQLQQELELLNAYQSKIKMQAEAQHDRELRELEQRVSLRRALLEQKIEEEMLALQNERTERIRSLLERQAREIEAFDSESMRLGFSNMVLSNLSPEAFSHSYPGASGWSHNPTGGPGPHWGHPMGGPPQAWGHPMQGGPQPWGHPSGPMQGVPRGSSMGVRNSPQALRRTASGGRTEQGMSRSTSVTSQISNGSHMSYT
Kind of test: Inhibition of human TAOK1 using myelin basic protein as substrate at 1 uM in presence of 32P-ATP by Hotspot assay relative to control; values are per cent of control.

For test [14], the target named is Tyrosine-protein kinase BTK (Homo sapiens) (UniProt Q06187). Kind of test: Inhibition of human BTK using poly[Glu:Tyr] (4:1) as substrate at 1 uM in presence of 32P-ATP by Hotspot assay relative to control; values are per cent of control.

Chain of Tyrosine-protein kinase Lyn (Homo sapiens) (P07948 2-512 limits assumed): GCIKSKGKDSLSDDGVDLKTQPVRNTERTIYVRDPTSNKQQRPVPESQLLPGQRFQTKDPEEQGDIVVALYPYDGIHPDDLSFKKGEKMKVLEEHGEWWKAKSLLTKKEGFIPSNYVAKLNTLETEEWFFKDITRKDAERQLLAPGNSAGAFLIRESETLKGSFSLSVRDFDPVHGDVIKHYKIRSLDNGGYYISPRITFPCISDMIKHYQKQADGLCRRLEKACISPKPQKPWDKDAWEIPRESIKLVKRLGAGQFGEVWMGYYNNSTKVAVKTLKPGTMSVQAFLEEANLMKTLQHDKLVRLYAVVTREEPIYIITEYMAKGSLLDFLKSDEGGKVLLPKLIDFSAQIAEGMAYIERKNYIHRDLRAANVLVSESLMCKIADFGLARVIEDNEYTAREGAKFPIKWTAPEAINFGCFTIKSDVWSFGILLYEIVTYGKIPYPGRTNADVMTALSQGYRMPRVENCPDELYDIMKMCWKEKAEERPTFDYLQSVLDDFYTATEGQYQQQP
Chain of Fibroblast growth factor receptor 3 (Homo sapiens) (P22607 23-806 limits assumed): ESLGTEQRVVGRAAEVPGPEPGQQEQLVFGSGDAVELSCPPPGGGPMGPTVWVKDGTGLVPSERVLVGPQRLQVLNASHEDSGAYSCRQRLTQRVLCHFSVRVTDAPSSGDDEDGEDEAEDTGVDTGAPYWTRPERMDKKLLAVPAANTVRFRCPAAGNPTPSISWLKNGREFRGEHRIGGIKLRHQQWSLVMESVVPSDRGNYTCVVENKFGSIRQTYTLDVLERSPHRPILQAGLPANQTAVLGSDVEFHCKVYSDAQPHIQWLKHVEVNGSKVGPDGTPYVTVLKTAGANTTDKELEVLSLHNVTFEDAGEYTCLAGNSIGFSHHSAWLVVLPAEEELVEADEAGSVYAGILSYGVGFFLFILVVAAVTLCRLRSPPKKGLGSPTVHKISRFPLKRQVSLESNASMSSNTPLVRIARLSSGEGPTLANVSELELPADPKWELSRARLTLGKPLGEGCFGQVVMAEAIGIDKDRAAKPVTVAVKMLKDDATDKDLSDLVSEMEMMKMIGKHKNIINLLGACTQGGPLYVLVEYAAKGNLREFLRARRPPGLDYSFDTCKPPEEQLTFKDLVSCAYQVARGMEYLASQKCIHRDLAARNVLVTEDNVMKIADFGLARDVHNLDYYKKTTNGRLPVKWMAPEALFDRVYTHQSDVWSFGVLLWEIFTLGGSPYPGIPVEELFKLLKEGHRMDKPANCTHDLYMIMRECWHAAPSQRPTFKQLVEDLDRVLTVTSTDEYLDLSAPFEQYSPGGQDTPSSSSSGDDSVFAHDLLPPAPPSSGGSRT
Chain of Tyrosine-protein kinase Srms (Homo sapiens) (Q9H3Y6 whole entry): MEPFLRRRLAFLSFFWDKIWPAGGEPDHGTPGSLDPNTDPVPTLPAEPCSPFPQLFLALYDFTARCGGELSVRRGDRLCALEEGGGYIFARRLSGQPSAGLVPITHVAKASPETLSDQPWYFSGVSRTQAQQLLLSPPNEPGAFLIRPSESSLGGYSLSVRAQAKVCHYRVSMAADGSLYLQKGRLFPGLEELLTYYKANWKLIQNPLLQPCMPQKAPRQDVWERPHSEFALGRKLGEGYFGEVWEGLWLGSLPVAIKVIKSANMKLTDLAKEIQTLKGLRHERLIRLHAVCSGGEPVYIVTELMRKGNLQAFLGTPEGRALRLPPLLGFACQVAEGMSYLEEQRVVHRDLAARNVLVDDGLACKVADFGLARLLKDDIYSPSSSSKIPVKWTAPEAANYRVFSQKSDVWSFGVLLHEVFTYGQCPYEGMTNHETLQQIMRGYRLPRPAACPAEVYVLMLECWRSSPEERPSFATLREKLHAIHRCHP
Chain of Cyclin-dependent kinase 1/cyclin B1 (Homo sapiens) (P06493 whole entry, looked up): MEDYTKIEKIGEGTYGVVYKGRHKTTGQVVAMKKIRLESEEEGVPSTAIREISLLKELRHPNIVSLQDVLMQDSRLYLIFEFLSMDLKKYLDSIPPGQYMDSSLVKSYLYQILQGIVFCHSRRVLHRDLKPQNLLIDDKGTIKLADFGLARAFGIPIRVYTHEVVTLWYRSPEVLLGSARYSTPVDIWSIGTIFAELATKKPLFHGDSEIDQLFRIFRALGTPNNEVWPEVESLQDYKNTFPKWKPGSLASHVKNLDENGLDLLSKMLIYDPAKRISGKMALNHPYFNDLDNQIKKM
Chain of Cyclin-dependent kinase 1/cyclin B1 (Homo sapiens) (P14635 whole entry, looked up): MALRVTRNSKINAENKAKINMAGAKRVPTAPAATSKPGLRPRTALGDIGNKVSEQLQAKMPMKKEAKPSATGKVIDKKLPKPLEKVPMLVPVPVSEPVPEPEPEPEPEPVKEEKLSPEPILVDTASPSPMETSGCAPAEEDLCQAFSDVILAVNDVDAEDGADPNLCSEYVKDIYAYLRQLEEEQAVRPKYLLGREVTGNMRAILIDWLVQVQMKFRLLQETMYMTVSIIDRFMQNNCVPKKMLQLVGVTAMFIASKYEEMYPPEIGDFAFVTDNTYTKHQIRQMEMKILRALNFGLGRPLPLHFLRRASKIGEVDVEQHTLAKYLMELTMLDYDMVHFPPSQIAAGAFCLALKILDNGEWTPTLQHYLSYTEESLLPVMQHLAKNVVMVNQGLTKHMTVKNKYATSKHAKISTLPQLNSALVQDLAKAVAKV

On to `CNC(=O)c1ccc2c(c1)ncn2-c1ccc(CC(=O)OC(C)(C)C)cc1`, for which the residual activity (as a rule, the signal under treatment as a percentage of the control signal) in test [1] is 65.3%; in [2] it was 78.2%; in test [3], 98.2%; in [5], 89.2%; in test [6], 98.9%; in [7], 76.1%. The residual activity was determined as 97.5% in test [8]; 102% in [9]; 105% in test [10]; 94% in test [11]; 99% in test [12]; 98.8% in test [13]. Also, in test [14], the residual activity turned out to be 79.8%. In addition, the inhibition result in test [4] was “inactive”.

On to `Cc1cc(-c2cnc(N)c3c(-c4ccc5scnc5c4)csc23)n(C)n1`, for which the residual activity in test [1] turned out to be 65%; in test [2], 7.38%; in test [3], 108%; in test [5], 14%; in test [6], 95%; in [7], 41%. Also, the residual activity came to 93.5% in test [8]; 99% in test [9]; 78.8% in [10]; 97.3% in test [11]; 78.1% in test [12]; 92.6% in [13]. The residual activity in [14] was found to be 58%. Moreover, the inhibition entry in test [4] is “Active”.

With `CC(C)S(=O)(=O)c1ccc2nccc(Nc3ccc4scnc4c3)c2c1`, the residual activity in test [1] is 94.3%; in test [2], 12%; in test [3], 102%; in test [5], 74.6%; in [6] it was 101%; in [7], 23.1%. For the same compound, the residual activity was 95.9% in test [8]; 103% in test [9]; 77.1% in test [10]; 89.6% in [11]; 89.6% in test [12]; 93.8% in [13]. For the same compound, the residual activity in test [14] is 30.4%. Moreover, the inhibition result in [4] is “Active”.
